Measured values taken from EP0326134A1, “4-Amino-2,3-disubstituted-6,7-dihydro-5H-1-pyridine derivatives, process for their preparation and medicaments containing them” (NAUCHNO-ISSLEDOVATELSKY INSTITUT TEKHNOLOGII I BEZOPASNOSTI …, priority 1988, dated 1989).

Columns and labels:
[1] = tested on: Nerven-Muskel-Präparat von Mäusen (n.peroneus-m.extensor digitorum longus); experiment: Neuromuscular transmission in isolated nerve-muscle preparation (EPP, minEPP); settings: for Stimulierung der Nerven-Muskelübertragung, in % der Amplitude: EPP: EPP = Endplattenpotential
Excerpt: Der Einfluß der Stoffe auf die Nerven-Muskei-Übertragung wurde am isolierten Nerven-Muskel-Präparat von Mäusen (n.peroneus-m.extensor digitorum longus) (s. Bhattacharyya B. et al. "Neuromuscular blocking action of two hemicholinium-3 analogs" Europ. J. Pharmac. 146, 155-165 /1988/) untersucht, das von Lilly-Lösung perfundiert wurde, durch die man ein Gemisch von 02 und C02 leitete. […] Das Endplattenpotential (EPP) und das Endplattenminiaturpotential (minEPP) wurden mit Hilfe eines Magnetografen aufgezeichnet und danach mit dem Computer ausgewertet. Ermittelt wurden die Frequenz (f), die Amplitude (A) und die Dauer (t) der minEPP und der EPP (s. Tabelle 2).

[2] = Side effects and CNS/behaviour: tremor (TD50), sedative and m-cholinomimetic effects; assay type: in vivo; settings: for Verhältnis TD50 zu ED50: ED50 = dose blocking the effect of Skopolamin in 50 % of the animals (passive avoidance, mice)
Excerpt: Von Interesse ist der Einfluß der erfindungsgemäßen Verbindungen auf das ZNS und das Verhalten der Tiere.

[3] = Acute toxicity, single intraperitoneal injection, probit analysis (LD50); assay type: in vivo, Mäusen; settings: mice, i.p.
Excerpt: Ihre akute Toxizität wurde an Mäusen (einmalige intraperitoneale Injektion) nach der Methode der Probit-Analyse nach Zichtfield, Wilcoxon, t949 untersucht. In Tabelle 2 sind die Parameter der akuten Toxizität (LDso) angegeben, die eine mäßige Toxizität der erfindungsgemäßen Verbindungen belegen.

[4] = target: T1, Acetylcholinesterase menschlicher Erythrozyten (Homo sapiens, UniProt P22303); experiment: Acetylcholinesterase inhibition, spectrophotometric; assay type: biochemical; settings: Acetylcholinesteraseinhibierung bei menschlichen Erythrozyten IK, (Mol), human erythrocyte enzyme
T1 construct: Acetylcholin-esteraseinhi-bierung bei menschlichen Erythrozyten; from tissue; host or cells: human erythrocytes
Excerpt: Untersucht wurden die Wirkmechanismen der erfindungsgemäßen Verbindungen: • 1. Die Wirkung auf Acetylcholinesterase menschlicher Erythrozyten auf spektrofotometrischem Wege. • 2.

[5] = tested on: Na -Durchlässigkeit der Membrane des Ranvier-Schnürringes; experiment: Na+ permeability of the node of Ranvier membrane, voltage clamp; set-up: species or system Frosches; settings: node of Ranvier, frog sciatic nerve fibres, voltage clamp; concentration giving 50 % block of ion permeability; read-out: Blockierung der Na^+-Durchlässigkeit der Membrane Ic50 (Mol)
Excerpt: (§1) Untersucht wurden die Wirkmechanismen der erfindungsgemäßen Verbindungen: • 1. Die Wirkung auf Acetylcholinesterase menschlicher Erythrozyten auf spektrofotometrischem Wege. • 2. Die Wirkung auf die K - und Na -Durchlässigkeit der Membrane des Ranvier-Schnürringes (s. Fox T.M. et al. "Modification of ionic membrane currrents of Ranvier nodes by UV-radiation under voltage clamp conditions", Experientia, 27, 1289-1290 /1971/ und Arhom P. et al. "Local anesthetics: effects on permeability properties of nodal membrane in myelynated nerve fibres from xenopus". Acta physiol. Scand. 91, 11-21 /1974/) der Nervenfasern des Hüftnervs des Frosches unter Anwendung der Methode der Messung der Membranspannung (Voltage-clampmethode) (s. Derksen H.E. "Axon membrane voltage fluctuations", Acta Physiol., Pharmacol Neer, 13, 373-466 /1965/).
(§2) Alle erfindungsgemäßen Verbindungen sind Blocker für die K^+-Durchlässigkeit der Membrane analog dem Amyridin. Die Salze der bicyclischen Basen blockieren jedoch stärker die Na -Durchlässigkeit der Membrane, was sich mit ihren sedativen und analgetischen Eigenschaften in Verbindung bringen läßt.

[6] = tested on: K -Durchlässigkeit der Membrane des Ranvier-Schnürringes; experiment: K+ permeability of the node of Ranvier membrane, voltage clamp; set-up: species or system Frosches; settings: node of Ranvier, frog sciatic nerve fibres, voltage clamp; concentration giving 50 % block of ion permeability; read-out: Blockierung der K^+-Durchlässigkeit der Membrane Ic50 (Mol)
Excerpt: as §1, §2

[7] = tested on: durch Skopolamin hervorgerufene Amnesie; experiment: Dark avoidance assay (passive avoidance), scopolamine-induced amnesia; assay type: in vivo, Mäusen; settings: mice, compound s.c. 5 min before learning, Skopolamin i.p. 30 min before
Experimental: Die Mäuse wurden dabei in den hellen Abschnitt der Kammer gegeben, wonach die Latenzzeit für den Übertritt in die dunkle Kammer, in der die Tiere einem Stromschlag von 0,5 mA ausgesetzt waren, registriert wurde. Danach erhöhte sich die Latenzzeit für den Übertritt in den dunklen Abschnitt und verringerte sich die Aufenthaltsdauer. 30 Minuten vor dem Versuch wurden den Mäusen i.p. […] Gedächtnisstörungen hervorrufendes Skopolamin als Cholinblocker injiziert. Die erfindungsgemäßen Verbindungen wurden s.c. 5 Minuten vor dem Lernvorgang injiziert. Das Skopolamin verkürzt die Latenzzeit für den Übertritt in die dunkle Kammer, die erfindungsgemäßen Verbindungen stellen jedoch die Latenzzeitwerte wie bei der Kontrollgruppe wieder her oder bedingen ein geringfügiges Überschreiten dieser Werte (siehe Tabelle 2). Gleichzeitig wird die Aufenthaltsdauer der Tiere im dunklen Abschnitt der Kammer auf 36 bis 45 Hundertstel des Ausgangswerts verringert.

Wirkung von Hexenal = experiment: Influence on the effect of Hexenal; assay type: in vivo, Mäusen; settings: mice
[8] = tested on: Calciumchlorid-Arrhythmie-Modells; experiment: Calcium chloride arrhythmia model (250 mg/kg): ventricular fibrillation, survival; assay type: in vivo, Ratten; settings: rats, calcium chloride 250 mg/kg
Excerpt: (§3) Die antiarrhythmische Wirkung der erfindungsgemäßen Verbindungen wurde in zwei Versuchsserien untersucht, und zwar an isolierten Präparaten des rechten Vorhofs von Kaninchen und mit Hilfe des Calciumchlorid-Arrhythmie-Modells an Ratten. In den Versuchen an den isolierten Präparaten des rechten Vorhofs wurden mit Hilfe von Mikroelektroden die Dauer des AP sowie der Refraktärzeit (R) und die maximale Hemmung (e) und der Parameter (e/R) untersucht, durch den die Anfälligkeit des Myokards gegenüber der Entstehung von Arrhythmien gekennzeichnet wird. In den Versuchen an Ratten wurden diesen Calciumchlorid in einer Dosierung von 250 mg/kg injiziert. Registriert wurden das Vorliegen von Kammerflimmern und die Lebensdauer der Tiere. Sämtliche erfindungsgemäßen Verbindungen üben eine mäßige antiarrhythmische Wirkung aus. Sie steigern die Refraktärzeit des Muskels und des AP um 35 bis 145 % und verringern gleichzeitig die Anfälligkeit des Myokards, ausgedrückt durch den Parameter e/R um 10 bis 80 % (s. Tabelle 4). In bezug auf diese Wirkung waren die Salze der bicyclischen Basen wirksamer als Amyridin. Bezüglich des Vermögens, die Tiere vor Kammerflimmern und vor dem Tod nach Verabreichung von 250 mg/kg Calciumchlorid zu schützen, waren diese Verbindungen ebenfalls am stärksten wirksam. Bei Verwendung des Calciumchlorid-Arrhythmie-Modells waren viele erfindungsgemäßen Verbindungen stärker wirksam als das klassische Antiarrhythmikum Chinidin (s. M.D. Ma s kovskij, Lekarstvennye sredstva, Bd. 1, S. 401, Moskau, Medicina, 1984).

Orientierungsaktivität = experiment: Influence on orientation activity; assay type: in vivo, Mäusen; settings: mice
Excerpt: Von Interesse ist der Einfluß der erfindungsgemäßen Verbindungen auf das ZNS und das Verhalten der Tiere. Alle Verbindungen zeigen eine Kombination von stimulierenden und sedativen Eigenschaften und bei höheren Dosen auch eine m-cholinomimetische Wirkung, wobei Tremor, Speichelfluß und Diarrhoe ausgelöst werden.

Zahl der Krämpfe = experiment: Writhing test (intraperitoneal acetic acid); assay type: in vivo, Mäusen; settings: male mice
Excerpt: Die analgetische Wirkung der erfindungsgemäßen Verbindungen wurde an männlichen Mäusen anhand des "Krampf"-Tests (Writhing-Tests) unter intraperitonealer Injizierung von Essigsäure und des Hot-plate-Tests untersucht. Im ersten Falle wurde die analgetische Wirkung der Verbindungen anhand der prozentualen Verringerung der Zahl der Krämpfe ermittelt. Beim zweiten Test wurde die Schwelle der Schmerzempfindlichkeit (Ablecken der Pfoten) bestimmt. Die stärkste analgetische Wirkung der erfindungsgemäßen Verbindungen zeigte sich beim "Krampf"-Test. Dabei übertrafen die Salze der bicyclischen Basen Amyridin, aber nicht alle erfindungsgemäßen Verbindungen waren schwächer als Morphin (s. Tabelle 4).

[9] = tested on: isolierten Präparaten des rechten Vorhofs von Kaninchen; experiment: Antiarrhythmic effect on isolated right atrium preparations (microelectrodes: AP duration, refractory period R, e/R); settings: isolated right atrium of rabbit, microelectrodes
Excerpt: as §3

[10] = toxic dose causing tremor in 50 % of the animals

T1 sequence (P22303 other isoform, or with tags, fused parts or gaps): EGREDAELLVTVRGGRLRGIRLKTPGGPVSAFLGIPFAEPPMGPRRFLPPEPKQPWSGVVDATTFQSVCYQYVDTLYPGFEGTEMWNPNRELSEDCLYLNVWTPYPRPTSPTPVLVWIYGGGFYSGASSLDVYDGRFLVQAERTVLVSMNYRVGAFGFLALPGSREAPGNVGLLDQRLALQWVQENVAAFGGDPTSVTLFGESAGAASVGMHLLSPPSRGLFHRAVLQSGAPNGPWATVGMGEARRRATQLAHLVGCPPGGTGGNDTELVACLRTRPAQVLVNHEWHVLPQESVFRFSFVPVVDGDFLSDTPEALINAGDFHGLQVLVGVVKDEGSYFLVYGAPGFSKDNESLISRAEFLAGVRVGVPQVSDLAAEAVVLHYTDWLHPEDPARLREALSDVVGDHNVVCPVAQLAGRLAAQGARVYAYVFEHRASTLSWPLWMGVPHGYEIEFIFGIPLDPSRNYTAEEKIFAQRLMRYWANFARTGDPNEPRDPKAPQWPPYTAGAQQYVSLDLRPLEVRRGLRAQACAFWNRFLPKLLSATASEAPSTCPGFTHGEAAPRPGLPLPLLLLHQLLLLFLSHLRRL

Compound | Stimulierung der Nerven-Muskelübertragung, in % der Amplitude: EPP [1] | Stimulierung der Nerven-Muskelübertragung, in % der Amplitude: minEPP [1] | Verhältnis TD50 zu ED50 [2] | TD50 (Tremor) [2, 10] | LD50 [3] | Ki [4] | IC50 [5] | IC50 [6] | Einfluß auf das Gedächtnis: Zahl der Tiere in %, bei denen die Skopolaminwirkung aufgehoben wurde [7] | Änderung der Dauer der Seitenlage, in %: Hexenal 60 mg/kg (Wirkung von Hexenal) | Antiarrhythmische Wirkung: Verlängerung d. Lebensdauer von Ratten an Hand des CaCl2-Arrhythmie-Modells, in % [8] | Änderung der Orientierungsaktivität, in % (Orientierungsaktivität) | Analgetische Wirkung: Abnahme d. Zahl der "Krämpfe" bei Mäusen, in % (Zahl der Krämpfe) | Antiarrhythmische Wirkung: Verlängerung d. Refraktärzeit (R), in % [9] | TD50 ([2]; in vivo, toxic dose causing tremor in 50 % of the animals)
CCc1nc2c(c(N)c1C)CCC2 [Verbindung 30] | 24% | 45% | 11 | 22 mg/kg | 40 mg/kg | 5100 nM | 350000 nM | 280000 nM | 75% | – | – | – | – | – | –
Cc1nc2c(c(N)c1C)CCC2 [Verbindung 9] | 40% | 80% | 7 | 7 mg/kg | 15 mg/kg | 251 nM | – | – | 70% | +30% | 140% | -20% | 70% | 110% | –
Cc1nc2c(c(N)c1C)CCC2 [Verbindung 6] | 35% | 80% | 10 | – | 35 mg/kg | 400 nM | – | – | 60% | +20% | 130% | -20% | 70% | 100% | 10 mg/kg
Cc1nc2c(c(N)c1C)CCC2 [Verbindung 4] | 40% | 85% | 11 | 5,5 mg/kg | 15 mg/kg | 240 nM | – | – | 70% | 0% | 180% | 0% | 80% | 90% | –
